Earlier results in patent US12233070B2, “Methods for treating benzodiazepine misuse/use disorder” (University of M[…] Center, priority 2020, dated 2025).

How the values were obtained:
[1] = target: α3 subunit-containing GABAA receptors (Homo sapiens, UniProt P18507+P34903); design: key: act as partial positive modulators for particular subtype combinations; none: zero efficacy (i.e., antagonism) at other subtypes; conditions: cited from earlier work
[2] = tested on: CNS benzodiazepine binding sites; conditions: 1.5 mg/70 kg oral, PET; cited from earlier work

Sequence of α3 subunit-containing GABAA receptors (P34903 29-492): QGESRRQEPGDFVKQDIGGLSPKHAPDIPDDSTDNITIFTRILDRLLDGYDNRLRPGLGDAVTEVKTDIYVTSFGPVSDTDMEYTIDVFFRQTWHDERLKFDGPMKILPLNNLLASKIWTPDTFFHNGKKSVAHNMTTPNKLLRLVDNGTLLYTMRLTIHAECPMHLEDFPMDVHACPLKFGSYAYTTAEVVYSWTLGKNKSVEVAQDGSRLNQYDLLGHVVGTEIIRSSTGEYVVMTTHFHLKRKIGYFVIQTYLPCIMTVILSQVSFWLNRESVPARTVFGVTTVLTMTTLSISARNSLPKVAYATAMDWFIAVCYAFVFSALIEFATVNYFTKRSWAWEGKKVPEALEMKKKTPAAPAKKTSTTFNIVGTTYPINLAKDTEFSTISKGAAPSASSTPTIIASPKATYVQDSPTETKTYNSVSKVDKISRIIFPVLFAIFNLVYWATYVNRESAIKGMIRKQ
Sequence of α3 subunit-containing GABAA receptors (P18507 40-475): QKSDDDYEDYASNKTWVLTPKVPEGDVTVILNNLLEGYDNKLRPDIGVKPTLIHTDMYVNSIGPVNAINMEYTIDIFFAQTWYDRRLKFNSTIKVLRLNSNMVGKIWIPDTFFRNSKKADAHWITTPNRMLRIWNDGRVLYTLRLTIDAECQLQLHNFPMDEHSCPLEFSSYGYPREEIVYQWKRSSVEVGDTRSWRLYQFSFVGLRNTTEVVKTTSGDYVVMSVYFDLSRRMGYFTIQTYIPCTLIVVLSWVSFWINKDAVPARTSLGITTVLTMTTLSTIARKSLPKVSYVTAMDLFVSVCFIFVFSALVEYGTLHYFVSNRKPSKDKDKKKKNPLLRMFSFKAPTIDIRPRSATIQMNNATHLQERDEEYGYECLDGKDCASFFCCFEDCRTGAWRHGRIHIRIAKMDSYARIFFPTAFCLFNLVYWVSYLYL
Sequence of α3 subunit-containing GABAA receptors (P28472 26-473 partner): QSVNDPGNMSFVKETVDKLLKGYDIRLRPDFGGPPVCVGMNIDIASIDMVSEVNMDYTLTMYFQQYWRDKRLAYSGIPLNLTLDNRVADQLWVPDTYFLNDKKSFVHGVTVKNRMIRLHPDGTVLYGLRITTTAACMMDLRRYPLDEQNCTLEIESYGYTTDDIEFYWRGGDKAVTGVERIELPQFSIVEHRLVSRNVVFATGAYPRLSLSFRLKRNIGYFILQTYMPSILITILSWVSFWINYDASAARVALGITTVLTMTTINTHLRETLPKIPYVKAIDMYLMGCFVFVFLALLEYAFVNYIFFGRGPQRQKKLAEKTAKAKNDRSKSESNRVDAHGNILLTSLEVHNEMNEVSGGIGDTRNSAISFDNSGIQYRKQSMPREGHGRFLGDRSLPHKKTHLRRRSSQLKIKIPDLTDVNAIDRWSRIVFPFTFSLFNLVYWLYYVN

## CC(C)(O)c1cnn2c(-c3ccc(F)c(-c4c(F)cccc4C#N)c3)cnc2n1 [TPA023B]
[1]
  Subtype α3: partial
[2]
  occupancy of CNS benzodiazepine binding sites: 50-55%
